The test system of data set [1] is human ovarian OVCAR-3 carcinoma cells. In words: Vascular disruption effects in human tumor xenograft model (tumor histology, hematoxylin and eosin Y). The format is in vivo, Crl:Nu/Nu-nuBR mice. To be noted: OVCAR-3 xenograft, 24 hours after dosing; for blood vessels in the necrotic areas / tumor necrosis pattern (central area of the tumors): 10 mg/kg test compound, 100 mg/kg CA4P. The method, then:
(4-Methoxy-phenyl)-methyl-(2-methyl-quinazolin-4-yl)-amine hydrochloride was tested in a human tumor xenograft model to determine its vascular disruption effects. Crl:Nu/Nu-nuBR mice were grown and injected with 1×10^7 human ovarian OVCAR-3 carcinoma cells on the right flank and allowed to grow to various tumor volumes. Mice were then dosed with either vehicle, 100 mg/kg combretastatin A-4 phosphate (CA4P) (obtained from Toronto Research Chemicals, Ontario, Canada) or 10 mg/kg (4-Methoxy-phenyl)-methyl-(2-methyl-quinazolin-4-yl)-amine hydrochloride.
Animals were housed by groups in Positive Individual Ventilation (PIV) cages in flat-bottom cages (Thoren Caging Systems, Hazelton, Pa.) with no more than ten mice per cage. Cages contained autoclaved TEK-Fresh bedding (Harlan, Indianapolis, Ind.), which was changed every seven days. Environmental controls were set to maintain a temperature between 65° F. and 75° F. with a relative humidity of 30-70% in a 12:12 hour light:dark cycle. Animals were feed gamma-irradiated 2019 rodent chow ad libitum (Harlan, Indianapolis, Ind.). Tap water was sterilized using manufacture recommended conditions and supplied via an automated watering system ad libitum (Edstrom Industries, Waterford, Wis.). Twenty four hours after dosing, mice were sacrificed and tumors and hearts removed, fixed, sectioned and stained with hematoxylin and eosin Y (each obtained from Richard Allen Scientific, Kalamazoo, Mich.).

The nature of data set [2]: Phase I clinical trial, weekly intravenous administration, subjects with refractory solid tumors (safety, tolerability). The format is in vivo, human. The conditions noted are these: i.v. weekly x3 per 4 week cycle, 0.3-3.3 mg/m^2. The method, then: An open-label, dose-escalating, multiple-dose study to define the safety, tolerability and pharmacokinetics of weekly intravenous administration of (4-Methoxy-phenyl)-methyl-(2-methyl-quinazolin-4-yl)-amine hydrochloride was performed. A dosing schedule (each 4 week cycle) was performed for (4-Methoxy-phenyl)-methyl-(2-methyl-quinazolin-4-yl)-amine hydrochloride weekly for 3 weeks with no infusion on the fourth week of each cycle. Subjects with refractory solid tumors were enrolled in cohorts of 3. During Cycle 1, subjects were hospitalized during each infusion of (4-Methoxy-phenyl)-methyl-(2-methyl-quinazolin-4-yl)-amine hydrochloride and remained for observation and safety evaluation for approximately 24 hours following the end of the infusion. All subject had continuous telemetry for 2 hours prior to infusion, for 1-2 hour infusion and for 3 hours after the end of the infusion. Any clinically significant electrocardiographic (ECG) wave form abnormality was recorded and prolongation of the monitoring period extended at the discretion of the principal investigator.
Electrocardiograms were obtained prior to starting the infusion and within 30 minutes of the end of infusion for each infusino of the first cycle. Electrocardiograms on Day 1 were obtained in triplicate 5 minutes apart.
Neurocognitive assessments were made by administration of the Mini-Mental State Examination (MMSE), the Hopkins Verbal Learning and timed Grooved Pegboard tests before administration of the intravenous infusion and approximately 24 hours of the infusion at each weekly administration of the first cycle.
On days 1, 8, and 15 of each cycle, vital signs were obtained prior to the first dose, at 15, 30, and 60 minutes after the initiation of the infusion, and at 0.5, 1, 1.5, 2, and 4 hours after the end of the intravenous infusion. Vital signs at all time points beyond the start of the intravenous infusion included heart rate, blood pressure and respirations. Temperature was measured at the end of the infusion and 4 hours later.
Individual subjects were allowed to continue on repeated weekly ×3 administrations every 28 days with no dose increase provided there was no unacceptable toxicity or disease progression.
Tumor response was evaluated by response evaluation criteria in solid tumors (RECIST) criteria. To prevent sever hypersensitivity reactions due to Cremophor® EL, subjects were premedicated with oral dexamethasone (20 mg) administered approximately 12 and 6 hours before the intervenous infusion with (4-Methoxy-phenyl)-methyl-(2-methyl-quinazolin-4-yl)-amine hydrochloride, diphenhydramine (50 mg) or its equivalent administered intravenously 30-60 minutes before (4-Methoxy-phenyl)-methyl-(2-methyl-quinazolin-4-yl)-amine hydrochloride, and cimetidine (300 mg) or ranitidine (50 mg) administered intravenously 30-60 minutes before (4-Methoxy-phenyl)-methyl-(2-methyl-quinazolin-4-yl)-amine hydrochloride.

Structures are written as SMILES. Where a name gives a salt, the structure may show the parent alone.

Turning to `COc1ccc(N(C)c2nc(C)nc3ccccc23)cc1` [(4-Methoxy-phenyl)-methyl-(2-methyl-quinazolin-4-yl)-amine hydrochloride], in data set [1], the “blood vessels in the necrotic areas” value is on record as “consistently congested with perivascular hemorrhage” and the “tumor necrosis pattern (central area of the tumors)” value was “extensive necrosis with a rim of viable tumor tissue around the periphery”. Further, the “degree of necrosis compared with CA4P treated animals” value in data set [1] (10 mg/kg vs 100 mg/kg CA4P) is “greater”. In data set [2], the bradycardia entry is “occasional episodes of bradycardia”; the dose limiting toxicity entry was “vascular in nature, manifested by an acute coronary syndrome”; the intratumor bleeding result is listed as “incidences of intratumor bleeding”; the “overall safety and tolerability” value was “safe and tolerable”. Moreover, in data set [2], the peripheral cytotoxicity result is on record as “no evidence of cytotoxity peripherally” and the systolic blood pressure result was “dose-related increase”. The “effects on cardiac conduction (PR, QRS or QTC)” value in data set [2] (ECG) is reported as “no significant effects”.
For the molecule `COc1ccc(/C=C\c2cc(OC)c(OC)c(OC)c2)cc1OP(=O)(O)O` [CA4P, combretastatin A-4 phosphate, reference compound], in data set [1], the “blood vessels in the necrotic areas” value was “consistently congested with perivascular hemorrhage” and the “tumor necrosis pattern (central area of the tumors)” value is on record as “extensive necrosis with a rim of viable tumor tissue around the periphery”.
